{
  "source": "patent US20140080824A1",
  "about": "“STRUCTURE-GUIDED IDENTIFICATION OF BINDING INTERACTIONS OF HUMAN LAMININ RECEPTOR PRECURSOR WITH LAMININ AND IDENTIFICATION OF COMPOUNDS THAT AFFECT BINDING” (NEW YORK UNIVERSITY, priority 2010, published 2014)",
  "molecules": {"B1": {"name": "A. fulgidus S2p: Archaeoglobus fulgidus S2 ribosomal protein, non-laminin binding ortholog of LamR (protein, UniProt O29132 1-197, looked up)", "Small ribosomal subunit …": "MMEKEYEYLVPPDDYLAAGVHIGTQIKTGDMKKFIFKVRQDGLYVLDIRKLDERIRVAAKFLSRYEPSKILLVAARQYAHKPVQMFSKVVGSDYIVGRFIPGTLTNPMLSEYREPEVVFVNDPAIDKQAVSEATAVGIPVVALCDSNNSSADVDLVIPTNNKGRRALAIVYWLLAREIAKIRGQDFTYSIEDFEAEL"}},
  "key": {"HT1080 cells [1]": {"system": "HT1080 cells", "assay": "HT1080 cell migration towards 10% FBS", "format": "cell-based, human", "description": "In order to understand how this in vitro result translated into the cellular context, the ability of cells to migrate toward growth medium was tested in the presence and absence of the LamR inhibitors of the present invention. Since LamR on the cell surface serves the purpose of binding extracellular matrix laminin and facilitates migration and metastasis, it was expected that as inhibitors of cell surface LamR, the compounds of the present invention would reduce the migratory capability of cells. […] The migration of HT1080 cells was reduced to a level equivalent to the no migration control of no serum (No FBS).\nHT1080 cells were tested for their ability to migrate toward normal growth media supplemented with 10% FBS or to 10 μg/mL purified laminin (Invitrogen) using the CytoSelect™ 24-well cell migration assay (8 μm, Colorimetric Format) (Cell Biolabs, Inc.). HT1080 cells were obtained from the American Type Culture Collection (Manassas, Va.). HT1080 cells were maintained in Dulbecco's modified Eagle's medium—[…] with 10% FBS. […] After agitation for 10 min at room temperature in extraction solution, 100 μl of each sample was transferred to an ELISA plate and read at 630 nm. […] Results were plotted using GraphPad Prism software, and statistical significance was calculated using a standard Student's t-test."}, "LamR": {"target": "LamR (Homo sapiens, UniProt P08865)", "assay": "Small-molecule inhibition of recombinant LamR binding to laminin coated surface", "conditions": "for Effect on LamR binding to laminin (in words): purified recombinant LamR, FIG. 8a; for Reduction of LamR binding to laminin relative to the vehicle control (DMSO alone): purified recombinant LamR pre-incubated with small molecule, dose-dependent (FIG. 8a)", "description": "Compounds that interact with this described pocket, MRT (LRI) and MRF (LRI-F), display the properties of LamR inhibitors and are preferred for use in the methods of the present application. […] Binding was not reduced by several negative control compounds (Negative and DBP).\n(§1) Wild type and mutant LamR binding affinity for laminin were tested in vitro. Clear polystyrene ELISA 96-well microplates, pre-coated with murine laminin (NEBiolabs), were blocked for 1 hour at 37° C. with blocking buffer (2% FCS, 1 mg/ml BSA, 0.1% sodium azide in PBS). Wells were incubated with increasing concentrations of purified wild type or mutant LamR for 1 h at 37° C. If a small molecule's effects on laminin binding were to be determined, the small molecule was pre-incubated with purified LamR for 15 minutes at 37° C. prior to addition of the mixture to the pre-coated plate. Each well was washed three times with wash buffer (0.5% Tween in PBS). Penta-His HRP conjugate (1:500) (Qiagen) was incubated for 2 h at RT and wells were washed three times with wash buffer. Substrate solution was added and incubated for approximately 10 minutes before reading the fluorescent absorbance detected at 490 nm on an ELISA plate reader (ELX800, Biotek Instruments, Inc.). Controls for buffer alone and binding of a nonspecific protein, A. fulgidus S2p, were also tested. Experiments were performed in triplicate. A binding curve and Kd were generated for wild type and mutant LamR using Prism software. The Kd was calculated using a one-site binding hyperbola and the equation Y=Bmax×X/(Kd+X). Each group was tested in triplicate and binding affinity was determined by normalizing to background fluorescence."}, "[2]": {"system": "3T3, HT1080 and C8161 cell lines", "assay": "Cellular translation by 35S-methionine pulse-chase radiolabeling", "format": "cell-based", "conditions": "10 μM, FIG. 9a", "description": "As expected for compounds with these properties, the LamR inhibitors of the invention attenuated the translation process.\nTo label newly synthesized proteins, cells were pulsed with 20 μCi/mL ^35S-methionine radiolabeled amino acid (PerkinElmer) in standard growth media lacking methionine (MP Biomedicals) for 2 hours at 37° C. Following the pulse, normal growth medium was added for the chase to restore normal conditions for 90 minutes. MPER mammalian protein extraction reagent (Pierce) was used to lyse cells and collect protein. To quantity the amount of newly synthesized protein containing the radioisotope, 20 μg total protein was precipitated with 10% TCA for 20 minutes at 4° C. Precipitant was vacuum filtered and washed on glass microfiber filters (Whatman) using 5% TCA followed by 95% ethanol. Filters were dried under a heat lamp prior to addition of 3 mL scintillation fluid to count radioisotope incorporation by events on a Beckman LS3801 scintillation counter (Beckman). For measuring the effects small molecules had on the translation, cells in culture were pre-treated for 18 hours with 1-10 μM of small molecule prior to pulse/chase. As a control for arresting translation, 50 μg/mL cycloheximide was added 3 hours prior to assessment."}, "[3]": {"system": "HT1080 human fibrosarcoma cells", "assay": "Experimental metastasis of luciferase expressing HT1080 cells in SCID mice", "format": "in vivo", "text": "In addition, LamR has been described to be a critical factor of tumor metastasis. Clinical uses of the LamR inhibitors disclosed herein include their use as anti-metastatic anti-tumor agents. In a manner similar to that observed for the above-described in vitro cellular migration assays, compound LRI-F has such anti-metastatic properties in a murine model of experimental metastasis. […] Tumor cells were imaged via their expression of an exogenous firefly luciferase gene using the IVIS in vivo imaging system (Caliper/Xenogen).\nCells were washed once in PBS and re-suspended to a concentration of 1×10^6 cells/mL in PBS. 0.5 cc of the cell suspension (500,000 cells) was injected intravenously via the tail vein into SCID mice. Tumor implantation was monitored with IVIS Spectrum imaging technology (Caliper LS/Xenogen) following intra-peritoneal injection of luciferin substrate. Briefly, a camera is used to detect bioluminescent signal emitted from luciferase expressing cells. Mice are injected i.p. with 0.3 cc of 15 mg/mL beetle luciferin substrate (Promega) in PBS. Mice are anesthetized with isofluoran (2%)/oxygen mixture prior to imaging 5 minutes post substrate injection. Light is collected over a 1 minute imaging period at high binning to detect lung signal. Living Image Software version 3.0 (Caliper LS) is used to quantify and represent light signal."}, "HT1080 cells [4]": {"system": "HT1080 cells", "assay": "Growth inhibition of HT1080 cells", "format": "cell-based, human", "conditions": "FIG. 9b", "text": "FIGS. 9a and 9b—Targeting LamR ribosomal and growth functions with inhibitors. (a) Inhibition of cellular translation in several cell lines by LamR inhibitor LRI-F (MRF/Face) by radiolabeled methionine pulse-chase. CHX, cycloheximide (b) Effects of treating HT1080 cells with LamR inhibitors. Dose dependent growth effects occur. *p-value <0.0001, n=3.\nThe analog compound LRI-F, an inhibitor of LamR, affected these functions."}, "laminin": {"system": "laminin", "assay": "In vitro binding affinity of wild type and mutant LamR for laminin (ELISA on laminin pre-coated plates)", "design": "species or system murine", "conditions": "immobilized laminin", "description": "as §1, with “Penta-His HRP conjugate (1:500) (Qiagen) was incubated for 2 h at RT and wells were washed three times with wash buffer.” left out, “Controls for buffer alone and binding of a nonspecific protein, A. fulgidus S2p, were also tested. Experiments were performed in triplicate. A binding curve and Kd were generated for wild type and mutant LamR using Prism software.” left out\nIn total, 14 mutants were analyzed individually (Table 1, FIG. 1a). […] The purity of the proteins was monitored by SDS ? […] Purified recombinant LamR220 (greater than 95% purity) was incubated in serial dilution on pre-coated laminin plates, and binding was detected by anti-His HRP. […]"}},
  "note": "“Also recorded” adds a separate entry of the source.",
  "data": [
    {"molecule": "C[C@@H]1C[C@@H]([C@H](O)CC2CC(=O)NC(=O)C2)C(=O)[C@@H](C)C1", "note": "[CHX, cycloheximide, reference compound]", "values": [
      {"measurement": "Migration of HT1080 cells to 10% serum after small molecule treatment", "setting": "HT1080 cells [1]; cells pre-treated 2 hours with 5-10 μM small molecule, CHX 50 μg/mL 3 hours, FIG. 8b", "result": "did not result in loss of migratory ability"}
    ]},
    {"molecule": "c1ccc2nc3c4ccccc4c4ccccc4c3nc2c1", "note": "[DBP, dibenzophenazine, reference compound]", "values": [
      {"measurement": "Effect on LamR binding to laminin (in words)", "setting": "LamR", "result": "not reduced"}
    ]},
    {"molecule": "S=C(Nc1ccc2nc3c4ccccc4c4ccccc4c3nc2c1)N1CCOCC1", "note": "[MRF, N-dibenzo[a,c]phenazin-11-yl-4-morpholinecarbothioamide]", "values": [
      {"measurement": "Translation of newly synthesized proteins relative to untreated control", "setting": "[2]", "result": "dramatic reduction"},
      {"measurement": "Tumor signal from the lungs", "setting": "[3]; 0.42 mg/20 g injected subcutaneously once 2 hours post-injection of cells, FIG. 10c-d", "result": "decreased tumor signal from the lungs"},
      {"measurement": "Ability of HT1080 cells to implant into the lungs after intravenous injection", "setting": "[3]; cells pretreated with 10 μM before tail vein injection, SCID mice, FIG. 10a", "result": "marked decrease"},
      {"measurement": "Survival of mice compared to cells pretreated with DMSO vehicle", "setting": "[3]; cells pretreated with 10 μM, FIG. 10b", "result": "prolonged survival"},
      {"measurement": "Reduction of LamR binding to laminin relative to the vehicle control (DMSO alone)", "setting": "LamR", "result": "approximately 50%"},
      {"measurement": "Effect on LamR binding to laminin (in words)", "setting": "LamR", "result": "block recombinant LamR binding to purified laminin coated surface"},
      {"measurement": "Growth effect in HT1080 cells", "setting": "HT1080 cells [4]", "result": "growth inhibitory effects in HT1080 cells in a dose-dependent manner"}
    ]},
    {"molecule": "O=C(NCCO)c1ccc2nc3c4ccccc4c4ccccc4c3nc2c1", "note": "[MRT, N-(2-hydroxyethyl)dibenzo[a,c]phenazine-11-carboxamide]", "values": [
      {"measurement": "Reduction of LamR binding to laminin relative to the vehicle control (DMSO alone)", "setting": "LamR", "result": "approximately 50%"},
      {"measurement": "Effect on LamR binding to laminin (in words)", "setting": "LamR", "result": "block recombinant LamR binding to purified laminin coated surface"}
    ]},
    {"molecule": "B1", "values": [
      {"measurement": "Inhibition of cell migration towards 10% FBS by recombinant protein", "setting": "HT1080 cells [1]; recombinant protein 1 μM in lower reservoir, FIG. 3b", "result": "not inhibited"},
      {"measurement": "Laminin binding activity (in words)", "setting": "laminin", "result": "does not exhibit laminin-binding activity; also recorded: no binding"}
    ]}
  ]
}
